By IC50 is commonly meant the point on the concentration scale where inhibition reaches its midpoint.

T1 sequence (Q13946 whole entry, species assumed): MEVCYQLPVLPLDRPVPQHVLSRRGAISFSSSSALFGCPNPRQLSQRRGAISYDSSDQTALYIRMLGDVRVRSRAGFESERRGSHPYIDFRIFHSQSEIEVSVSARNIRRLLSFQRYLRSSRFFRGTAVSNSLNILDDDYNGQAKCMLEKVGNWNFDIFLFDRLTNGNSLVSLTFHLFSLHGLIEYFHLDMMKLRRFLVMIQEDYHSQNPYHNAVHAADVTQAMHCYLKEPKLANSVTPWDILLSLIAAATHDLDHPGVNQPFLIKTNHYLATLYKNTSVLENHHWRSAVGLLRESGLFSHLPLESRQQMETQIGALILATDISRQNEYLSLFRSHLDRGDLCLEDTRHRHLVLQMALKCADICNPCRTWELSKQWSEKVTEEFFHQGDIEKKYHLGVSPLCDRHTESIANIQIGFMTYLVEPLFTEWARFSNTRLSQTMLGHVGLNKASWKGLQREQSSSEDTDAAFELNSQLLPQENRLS

This experiment addresses T1, PDE7A1 (Homo sapiens, UniProt Q13946).
T1 construct: made in house; host or cells: Sf21 insect cells, baculovirus expression system
Briefly: In vitro inhibition of phosphodiesterase 7. As to conditions: substrate cAMP 50 nM, reaction stopped after 10 minutes; read-out: IC50 PDE7. Format: biochemical. The procedure: The capacity of the compounds of the invention to inhibit cyclic nucleotide phosphodiesterases was evaluated by measuring their IC50 (concentration necessary to inhibit the enzymatic activity by 50%).
PDE3A3, PDE4D3, PDE7A1 were cloned and expressed in insect cells Sf21 using the baculovirus expression system and we uses directly the cell culture supernatant as enzyme source. The source of PDE1 and of PDE5 were human cell lines (respectively TPH1 human monocytes and MCF7 human breast adenocarcinoma).
They were obtained partially purified on an anion exchange column (Mono Q) according to a method adapted from Lavan B. E., Lakey T., Houslay M. D. Biochemical pharmacology, 1989, 38 (22), 4123–4136.
Measurement of the enzymatic activity for the various types of PDE was then made according to a method adapted from W. J. Thompson et al. 1979, Advances in Cyclic Nucleotide Research, Vol. 10: 69–92, ed. G. Brooker et al. Raven Press, NY.
The substrate used was cGMP for PDE1 and PDE5 and cAMP for PDE 3, PDE 4 and PDE 7. The substrate concentration was 0.2 μM for PDE 1, PDE 3 and PDE 5, 0,25 μM for PDE 4 and 50 nM for PDE 7.
The enzymatic reaction was stopped after 1 hour for PDE 1, PDE 3 and PDE 5 and 10 minutes for PDE 4 and PDE 7.
With `O=C1Nc2c(Cl)cc(-c3ccccc3)cc2C2(CCCCC2)N1` [Example 26, 8′-Chloro-6′-phenylspiro[cyclohexane-1-4′-(3′,4′-dihydro)quinazolin]-2′(1′H)-one], the IC50 was 16 nM.

`O=C1Nc2c(Cl)cc(-c3ccc(C(=O)N4CCN(CC(=O)N5CCOCC5)CC4)cc3)cc2C2(CCCCC2)N1` [Example 53, 8′-Chloro-6′-[4-(4-(2-morpholin-4-yl-2-oxo-ethyl)-piperazine-1-carbonyl)-phenyl]spiro[-cyclohexane-1-4′-(3′,4′-dihydro)quinazolin]-2′(1′H)-one]: the IC50 came to 13 nM.

Take `CN(C)CCCNC(=O)c1cccc(-c2cc(Cl)c3c(c2)C2(CCCCC2)NC(=O)N3)c1` [Example 41, 8′-Chloro-6′-[3-(3-N-dimethylamino-propylcarboxamide)phenyl]spiro[-cyclohexane-1-4′-(3′,4′-dihydro)quinazolin]-2′(1′H)-one]: the IC50 is 20 nM.

For `O=C1Nc2c(Cl)ccc(Cl)c2C2(CCCCC2)N1` [Example 15, 5′,8′-Dichlorospiro[cyclohexane-1-4′-3′,4′-dihydro)quinazolin]-2′(1′H)-one], the IC50 turned out to be 14 nM.

On to `O=C1Nc2c(Cl)cc(-c3ccc(C(=O)N4CCN(CCOCCO)CC4)cc3)cc2C2(CCCCC2)N1` [Example 54], for which the IC50 was 13 nM.

Consider `O=C1Nc2c(Cl)cc(-c3ccc4[nH]ccc4c3)cc2C2(CCCCC2)N1` [Example 34, 8′-Chloro-6′-(1H-indol-5-yl)spiro[cyclohexane-1-4′-(3′,4′-dihydro)quinazolin]-2′(1H)-one], for which the IC50 came out at 12 nM.

`CN1CCN(C(=O)c2ccc(-c3cc(Cl)c4c(c3)C3(CCCCC3)NC(=O)N4)cc2)CC1` [Example 38, 8′-Chloro-6′-[4-(4-methyl-piperazine-1-carbonyl)phenyl]spiro[cyclohexane-1-4′-(3′,4′-dihydro)quinazolin]-2′(1′H)-one]: the IC50 came out at 18 nM.

For the compound `O=C1Nc2c(Cl)cc(-c3ccc(C(=O)N4CCN(c5ncccn5)CC4)cc3)cc2C2(CCCCC2)N1` [Example 51, 8′-Chloro-6′-[4-(4-pyrimidin-2-yl-piperazine-1-carbonyl)phenyl]spiro[-cyclohexane-1-4′-(3′,4′-dihydro)quinazolin]-2′(1′H)-one], the IC50 came out at 8 nM.

As to `O=C1Nc2c(Cl)cc(-c3ccc(C(=O)N4CCN(CCN5CCOCC5)CC4)cc3)cc2C2(CCCCC2)N1` [Example 52, 8′-Chloro-6′-[4-(4-(2-morpholin-4-yl-ethyl)-piperazine-1-carbonyl)-phenyl]spiro[-cyclohexane-1-4′-(3′,4′-dihydro)quinazolin]-2′(1′H)-one], the IC50 was 15 nM.

(Values after US7214676B2, “Spirotricyclic derivatives and their use as phosphodiesterase-7 inhibitors” (Warner-Lambert Company LLC, priority 2001, dated 2007).)
